“Also recorded” adds a separate entry of the source.

Common to all, as to assay type: cell-based
Test [1] has as its system ECs and SMCs of saphenous veins. The test is described as follows: TUNEL apoptosis assay on cryopreserved/thawed human saphenous veins. The note with it: for effect on number of TUNEL-positive cells (in words) / reduction of TUNEL-positive cell death counts (fraction): saphenous veins; for Protection relative to total number of cells (%) / Protection relative to total number of dead cells (%): Veins, Gap27 200 μM; for reduction of TUNEL-positive cell death counts (fraction): 200 μM during cryopreservation, thawing and DMSO washout. From the text: (§1) Tissue samples of human femoral artery and saphenous vein were obtained from deceased donors (age: 45±1.7 years) according to a protocol that was approved by the ethical committee of the University Hospital Ghent, Belgium. […] Exclusion criteria were: presence of ulcers, calcific atheromas, rupture of intima or media, traction lesions due to prelevation in arteries; signs of phlebitis, atheromatosis, parietal abnormalities, or lesions of intima in veins. The vessels were placed in HBSS-HEPES and prior to cryopreservation, DMSO (15%) was added. […] Grafts were cryopreserved at 1° C./minute in a −80° C. freezer and, after two weeks, stored for at least another two weeks in a liquid nitrogen container (−196° C.).
(§2) For vessel analysis and cell death studies, tissues were thawed in a 37° C. water bath and kept on ice before the next steps. DMSO was then progressively washed out by a stepwise reduction of the DMSO concentration in the HBSS-HEPES solution. To that purpose, the blood vessels remained for 4 minutes in HBSS-HEPES solution with, respectively, 10%, 5%, 2.5% and 0% DMSO. In Gap27-treated vessels, the peptide (200 μM) was present during DMSO washout.
(§3) After DMSO washout, vessels were embedded in paraffin. To this purpose, blood vessels were transferred to a neutral buffered 4% formalin solution for fixation during 24 hours and were then embedded in paraffin. Paraffin-embedded vessel specimens were cut into […] serial sections along a transverse plane and were then stained with hematoxylin and eosin for general inspection, immunostained for connexins to establish the expression of various connexin types in the blood vessels or stained for cell death (apoptosis) making use of in situ terminal TdT-mediated dUTP nick end-labeling (TUNEL) with the In Situ Cell Death Detection Kit (Roche, Vilvoorde, Belgium). After any of these staining procedures, images were taken on a Nikon TE300 inverted microscope using a ×10 or ×20 objective and equipped with a Nikon DS-Ri1 cooled color CCD camera (Nikon Belux, Brussels, Belgium).
(§4) Embedded artery or vein sections were deparaffinized, rehydrated through graded alcohol, and permeabilized with 0.1% TRITON® X-100 at room temperature (8 minutes incubation). Slides were rinsed twice in a phosphate-buffered saline (PBS). Apoptosis was detected through in situ terminal deoxynucleotidyl transferase (TdT)-mediated deoxyuridine triphosphate (dUTP) nick end-labeling (TUNEL), using the In Situ Cell Death Detection Kit (Roche, Vilvoorde, Belgium). Slides were incubated with the TUNEL reaction mixture containing TdT and fluorescein-dUTP for 1 hour at 37° C.; thereafter, they were rinsed three times in PBS and mounted as described for immunostaining. […] TUNEL-stained blood vessel tissue sections were examined by epifluorescence microscopy as described for immunostaining. Four areas from each slide were examined and five slides per blood vessel were analyzed. The number of TUNEL-positive cells is given as a percentage of the total number of cells quantified from DAPI-positive counts.

In test [2] the test system is ECs and SMCs of femoral arteries. The test is described as follows: TUNEL apoptosis assay on cryopreserved/thawed human femoral arteries. The conditions noted are these: for effect on number of TUNEL-positive cells (in words) / reduction of TUNEL-positive cell death counts (fraction): femoral arteries; for Protection relative to total number of cells (%) / Protection relative to total number of dead cells (%): Arteries, Gap27 200 μM; for reduction of TUNEL-positive cell death counts (fraction): 200 μM during cryopreservation, thawing and DMSO washout.
Excerpt: as §1, §2, §3, §4

The subject of test [3] is C6 glioma cells stably transfected with Cx43. Kind of test: TUNEL control experiment with staurosporine. The conditions noted are these: 2 μM, 6 hours.
Test [4] concerns ECs and SMCs of saphenous veins. The test is described as follows: TUNEL apoptosis assay on cryopreserved/thawed human saphenous veins. The conditions noted are these: saphenous vein; Gap27 during cryopreservation/thawing only.
Test [5] has as its system bovine cumulus-oocyte complexes (COCs). Kind of test: TUNEL cell death assay on COCs after vitrification/thawing.
Procedure: Bovine cumulus-oocyte complexes (COCs) were aspirated from ovaries collected at a local slaughterhouse. Immature COCs were recovered from the follicular fluid, washed two times in HEPES-TALP (see below under the heading “Pharmacological agents and solutions” of Materials and Methods), and matured for 22 hours in groups of 60 in 500 mL of modified bicarbonate-buffered TCM199 (Gibco BRL, Life Technologies) supplemented with 20% heat-inactivated fetal calf serum (FCS; Sigma-Aldrich) at 38.5° C. in a humidified 5% CO2 incubator. Vitrification was performed in two steps: an equilibration (EQ) and a vitrification step (VS). Equilibration solution was composed of M199/Hanks/HEPES supplemented with 20% fetal calf serum (FCS)+7.5% ethylene glycol+7.5% DMSO. The vitrification solution contained: M199/Hanks/HEPES supplemented with 20% FCS+15% ethylene glycol, 15% DMSO and 0.5 M sucrose. The COCs were washed by transferring them sequentially in three drops of 100 μl EQ solution (3 minutes residence in the first two drops and 6 minutes in the last drop) and then placed stepwise in five 100 μl drops VS solution (5 seconds in each drop except for the fifth that lasted 10 seconds). The connexin channel inhibitor Gap27 was added to the fifth drop of VS solution at a final concentration of 200 μM (the Gap27 sequence is given below under the heading “Pharmacological agents and solutions” of Materials and Methods). The control condition consisted of a drop solution without any added Gap27. COCs were placed in a manufactured cryotop and transferred immediately to liquid nitrogen (−196° C.).
After 24 hours' storage in liquid nitrogen, the COCs were thawed by transferring them to a warming solution at 37° C. composed of M199/Hanks/HEPES+20% FCS+1.25 M sucrose for 1 minute. This was followed by a three-step wash-out of the hyperosmolar sucrose (reduced from 1.25 M to 0.62, 0.31 and 0 M, respectively; duration of each wash was 3 minutes, 5 minutes and 5 minutes, respectively). In the Gap27 treatment condition, the peptide concentration was gradually diluted over these three washing steps, halving its concentration with each transfer step (reduced from 200 μM in cryopreservation solution to 100, 50 and 0 μM, respectively). In the text that follows, “thawing” denotes the combination of warming and wash out of the hyperosmolarity.
COCs were fixed in neutral buffered 4% formalin solution after thawing. Fixed COCs were permeabilized with 0.1% TRITON® X-100 at room temperature (8-minute incubation). […] Cell death was detected by in situ terminal deoxynucleotidyl transferase (TdT)-mediated deoxyuridine triphosphate (dUTP) nick end-labeling (TUNEL), using a commercial In Situ Cell Death Detection Kit (Roche, Vilvoorde, Belgium). […]
The subject of test [6] is bovine oocytes. The test is described as follows: Fertilization rate of vitrified/thawed COCs. The conditions noted are these: COCs vitrified/thawed in the presence of Gap27. The protocol: All procedures used were in accordance with the guidance principals for care and use of laboratory animals of the Laboratory Animal Ethical Commission of Ghent University. Bovine cumulus-oocyte complexes (COCs) were aspirated from ovaries collected at a local slaughterhouse. Immature COCs were recovered from the follicular fluid, washed two times in HEPES-TALP (see below under the heading “Pharmacological agents and solutions” of Materials and Methods), and matured for 22 hours in groups of 60 in […] of modified bicarbonate-buffered TCM199 (Gibco BRL, Life Technologies) supplemented with 20% heat-inactivated fetal calf serum (FCS; Sigma-Aldrich) at 38.5° C. in a humidified 5% CO2 incubator. Vitrification was performed in two steps: an equilibration (EQ) and a vitrification step (VS). Equilibration solution was composed of M199/Hanks/HEPES supplemented with 20% fetal calf serum (FCS)+7.5% ethylene glycol+7.5% DMSO. The vitrification solution contained: M199/Hanks/HEPES supplemented with 20% FCS+15% ethylene glycol, 15% DMSO and 0.5 M sucrose. The COCs were washed by transferring them sequentially in three drops of 100 μl EQ solution (3 minutes residence in the first two drops and 6 minutes in the last drop) and then placed stepwise in five 100 μl drops VS solution (5 seconds in each drop except for the fifth that lasted 10 seconds). […]

For test [7], the system named is bovine oocytes. The test is described as follows: Cleavage rate of vitrified/thawed COCs. The note with it: Gap27-treated vitrified/thawed COCs; after 48 hours in culture. As to the method: All procedures used were in accordance with the guidance principals for care and use of laboratory animals of the Laboratory Animal Ethical Commission of Ghent University. Bovine cumulus-oocyte complexes (COCs) were aspirated from ovaries collected at a local slaughterhouse. Immature COCs were recovered from the follicular fluid, washed two times in HEPES-TALP (see below under the heading “Pharmacological agents and solutions” of Materials and Methods), and matured for 22 hours in groups of 60 in […] of modified bicarbonate-buffered TCM199 (Gibco BRL, Life Technologies) supplemented with 20% heat-inactivated fetal calf serum (FCS; Sigma-Aldrich) at 38.5° C. in a humidified 5% CO2 incubator. Vitrification was performed in two steps: an equilibration (EQ) and a vitrification step (VS). Equilibration solution was composed of M199/Hanks/HEPES supplemented with 20% fetal calf serum (FCS)+7.5% ethylene glycol+7.5% DMSO. The vitrification solution contained: M199/Hanks/HEPES supplemented with 20% FCS+15% ethylene glycol, 15% DMSO and 0.5 M sucrose. […]
To determine the cleavage rate, zygotes were washed and placed in groups of 30 in […] droplets of synthetic oviduct fluid (composition see below under “Pharmacological agents and solutions”) supplemented with 5% FCS and cultured at 38.5° C. in 5% CO2, 5% O2, and 90% N2; cleavage rate was determined after 48 hours in culture.

The test system of test [8] is ECs and SMCs of femoral arteries. The test is described as follows: TUNEL apoptosis assay on cryopreserved/thawed human femoral arteries. The conditions noted are these: femoral artery; Gap27 during cryopreservation/thawing only.
Test [9] concerns cumulus cells of bovine COCs. Kind of test: TUNEL cell death of COCs after simulated transportation. As to the method: COCs were fixed in neutral buffered 4% formalin solution after thawing. Fixed COCs were permeabilized with 0.1% TRITON® X-100 at room temperature (8-minute incubation). COCs were rinsed twice in a phosphate-buffered saline (PBS, see Pharmacological agents and solutions). Cell death was detected by in situ terminal deoxynucleotidyl transferase (TdT)-mediated deoxyuridine triphosphate (dUTP) nick end-labeling (TUNEL), using a commercial In Situ Cell Death Detection Kit (Roche, Vilvoorde, Belgium). COCs were incubated with the TUNEL reaction mixture containing TdT and fluorescein-dUTP for 1 hour at 37° C.; thereafter, they were rinsed three times in PBS and mounted with an antifade solution containing 4′,6-diamidino-2-phenylindole (DAPI) (Vectashield, Lab Consult) for nuclear staining. Slides were examined by epifluorescence microscopy using a Nikon TE300 inverted microscope with a ×10 objective and equipped with a Nikon DS-Ri1 cooled color CCD camera (Nikon Belux, Brussels, Belgium).
[…] This was performed with or without Gap27 peptide (200 μM) present in the transportation phase medium. Afterward, cell death was evaluated via TUNEL assays as described before.
Testing was performed as to whether Gap27 could improve COC viability upon inclusion in the media during a simulated transportation phase (5 hours total duration, see Materials and Methods) applied after the vitrification/thawing procedure. In these experiments, vitrification/thawing were done under control conditions and Gap27 was only present in the transportation medium.

Where [10] appears, read: cumulus cells, Gap27 during vitrification/thawing.
[11] abbreviates: simulated transportation at 0° C., intact COCs.
The mark [12] stands for this setting: simulated transportation at 37° C., cumulus reduced to 1-5 cell layers.
Setting [13] is: simulated transportation at 37° C., intact cumulus cloud.

Turning to “Gap27 with a scrambled peptide sequence: scrambled Gap27 control peptide TFEPIRISITK [reference compound]”, the “effect on number of TUNEL-positive cells (in words)” value is “no significant effects” in test [1] (ECs and SMCs); “no significant effects” in test [2] (ECs and SMCs).

As for `CN[C@@H]1C[C@H]2O[C@@](C)([C@@H]1OC)n1c3ccccc3c3c4c(c5c6ccccc6n2c5c31)C(=O)NC4` [staurosporine, Staurosporine], the “TUNEL positivity (in words)” value in test [3] is reported as “massive TUNEL positivity”.

Turning to “Gap27: connexin mimetic peptide, connexin channel inhibitor, SRPTEKTIFII (SEQ ID NO:2) (listed as Homo sapiens)”, the “effect on cell death (in words)” value in [4] was “larger and statistically significant protective effects”; in test [8], “larger and statistically significant protective effects”; in [1] (saphenous vein, ECs and SMCs, Gap27 during DMSO washout only) it was “slightly (but non-significantly) reduced”; in [2] (femoral artery, ECs and SMCs, Gap27 during DMSO washout only) it was “slightly (but non-significantly) reduced”. Further, the “cell death (TUNEL assay) of cumulus cells” value in test [5] (Gap27 200 μM during vitrification/thawing) came to 1.68%. Besides, in [5] (after vitrification/thawing, whatever the treatment), the “cell death of the oocytes (in words)” value is reported as “No cell death of the oocytes”. Besides, in test [5] (setting [10]), the “cell mass rescued (effect size relative to the total number of cells)” value is on record as around 2.4%. In addition, in [5] (setting [10]), the “reduction relative to the total number of dead cells in control” value is around 59%. Further, the fertilization rate in the test with bovine oocytes [6] is reported as 41.2%. Further, the cleavage rate with bovine oocytes [7] stood at 28%. The “Protection relative to total number of cells (%)” value in [1] (EC) is listed as 12 ± 4 (n = 13) %; in [1] (SMC), 6 ± 2 (n = 13) %; in test [2] (EC), 11 ± 4 (n = 11) %; in test [2] (SMC), 6 ± 3 (n = 11) %. Further, the “Protection relative to total number of dead cells (%)” value in test [1] (EC) was 51 ± 8 (n = 13) %; in test [1] (SMC), 71 ± 6 (n = 13) %; in test [2] (EC), 32 ± 8 (n = 11) %; in [2] (SMC), 73 ± 7 (n = 11) %. Further, the “effect on number of TUNEL-positive cells (in words)” value in test [1] (ECs and SMCs) was “significantly reduced”; in test [2] (ECs and SMCs), “visibly reduced; also recorded: significantly reduced”. Besides, the “reduction of TUNEL-positive cell death counts (fraction)” value is reported as “½” in [1] (ECs), “more than ½” in [1] (SMCs), “more than ⅓” in test [2] (intimal layer (ECs)) and “more than ⅔” in [2] (medial layer (SMCs)). In addition, the “cell death of cumulus cells” value in test [9] (simulated transportation 5 hours at 37° C., intact cumulus cloud, Gap27 200 μM in transportation medium) was 13.8%; in [9] (setting [11]), 2.82%; in [9] (simulated transportation at 37° C., cumulus cell layer reduced to 1-5 cell layers), 7.54%. In addition, the results for the “reduction of the dead cell mass” value in test [9] (setting [11]) and in test [9] (setting [12]) were around 53% and around 54%, respectively. Also, the entries for the “rescue effect of the total cell mass” value in test [9] (setting [11]) and in test [9] (setting [12]) were around 3.1% and around 8.7%, respectively. For the same molecule, the “reduction of the mass of dead cells” value in test [9] (setting [13]) is on record as around 32%. For the same molecule, the “rescue effect relative to the total mass of cells” value in [9] (setting [13]) was around 6.5%.
